{"source": "patent US20050069593A1", "about": "“Nutritional supplement containing 7-Keto-DHEA and conjugated linoleic acid” (LIFE TIME FITNESS, Inc., priority 2003, published 2005)", "origin": "cited, not measured here", "system": "brown adipose tissue", "conditions": "in vitro; Dulloo, et al., Int. J. Obes. Relat. Metab. Disord. 24, 252 (2000)"}
{"smiles": "O=C(O[C@@H]1Cc2c(O)cc(O)cc2O[C@@H]1c1cc(O)c(O)c(O)c1)c1cc(O)c(O)c(O)c1", "note": "[EGCG, epigallocatechin gallate]", "values": [{"measurement": "respiration rate of brown adipose tissue", "result": "increased"}]}
